Results published in PubChem BioAssay (NCI).
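Values below derive from 48-hour exposures of cells grown in 96-well plates, with endpoints linearly interpolated between the two concentrations bracketing the appropriate inhibition level. The concentration for full growth arrest is given as TGI.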

Legend:
Test in all cases: NCI anticancer screen, dose series, 48 h
786-0 renal = system: 786-0 renal
BT-549 breast = system: BT-549 breast
HCC-2998 colon = system: HCC-2998 colon
MCF7 breast = system: MCF7 breast
MDA-MB-435 = system: MDA-MB-435
NCI-H226 lung = system: NCI-H226 lung
NCI-H460 lung = system: NCI-H460 lung
OVCAR-8 ovarian = system: OVCAR-8 ovarian
RPMI-8226 leukemia = system: RPMI-8226 leukemia
SNB-75 CNS = system: SNB-75 CNS

SMILES	TGI (786-0 renal)	TGI (BT-549 breast)	TGI (HCC-2998 colon)	TGI (MCF7 breast)	TGI (MDA-MB-435)	TGI (NCI-H226 lung)	TGI (NCI-H460 lung)	TGI (OVCAR-8 ovarian)	TGI (RPMI-8226 leukemia)	TGI (SNB-75 CNS)
O=[N+]([O-])c1cc(F)ccc1Sc1ccccc1	> 10 µM	> 10 µM	> 10 µM	> 10 µM	> 10 µM	> 10 µM	> 10 µM	> 10 µM	> 10 µM	> 10 µM
O=c1[nH]c2cc([N+](=O)[O-])c(Nc3c4ccccc4nc4ccccc34)c([N+](=O)[O-])c2[nH]1	17.6 µM	23 µM	5.75 µM	8.36 µM	8.62 µM	15 µM	7.75 µM	16.3 µM	8.25 µM	13.5 µM
COc1ccc(OC)c(C[P+](c2ccccc2)(c2ccccc2)c2ccccc2)c1	> 100 µM	29.1 µM	26.2 µM	> 40.7 µM	13.7 µM	> 61.4 µM	> 100 µM	> 65.3 µM	6.39 µM	22.2 µM
COc1ccc(C2SCC(=O)N2NC(=O)C(C)Oc2ccc(Cl)cc2Cl)cc1 (stereo not given)	41.7 µM	52.8 µM	> 100 µM	> 100 µM	> 100 µM	33.6 µM	> 100 µM	> 100 µM	> 100 µM	51.1 µM
Cc1ccc(NC2=N/C(=C/c3ccco3)C(Cl)=N2)cc1	> 100 µM	> 100 µM	> 49.7 µM	> 100 µM	> 100 µM	> 100 µM	> 100 µM	> 100 µM	> 100 µM	> 100 µM
C=CC(OC(C)=O)c1ccc(OC(C)=O)cc1 (stereo not given)	2.99 µM	23.9 µM	18.6 µM	26.5 µM	11.9 µM	32.1 µM	37.1 µM	11.7 µM	5.92 µM	31.5 µM
O=C1/C(=C/c2ccc(O)cc2)CCC1CNc1ccccc1 (stereo not given)	18.9 µM	27.6 µM	35.8 µM	10.2 µM	36.2 µM	37.9 µM	50.9 µM	29.9 µM	5.12 µM	41.2 µM
COC(=O)C1CC23C=CCN4CC(C2C)C2(c5ccccc5NC12)C43 (stereo not given)	> 100 µM	> 100 µM	> 100 µM	> 100 µM	> 100 µM	> 100 µM	> 100 µM	> 100 µM	> 100 µM	> 100 µM
Nn1c(Sc2nc3ccccc3c(=O)n2N)nc2ccccc2c1=O	18.6 µM	6.38 µM	30.7 µM	27.4 µM	> 49.5 µM	5.5 µM	51.7 µM	11.1 µM	11.5 µM	34.8 µM
Cc1c(C#N)c(=N)oc2ccccc12	> 100 µM	> 100 µM	> 100 µM	> 100 µM	> 100 µM	> 100 µM	> 100 µM	> 100 µM	> 100 µM	> 100 µM
C/C(=N/NC(=S)N1CCN(C(=S)N/N=C(/C)c2ccccn2)CC1)c1ccccn1	> 100 µM	> 100 µM	> 100 µM	> 100 µM	> 100 µM	> 74.5 µM	> 100 µM	> 100 µM	> 100 µM	> 77.6 µM
O=[N+]([O-])c1ccc2c(c1)n1c(N3CCCC3)[n+]3ccccc3c1c1c3cccc[n+]3c(N3CCCC3)n21	> 100 µM	> 100 µM	> 100 µM	> 100 µM	> 100 µM	> 100 µM	> 100 µM	> 100 µM	> 100 µM	> 100 µM
O=C(O)CCSC1=NCCN1	> 100 µM	> 100 µM	> 100 µM	> 100 µM	> 100 µM	> 100 µM	> 100 µM	> 100 µM	> 100 µM	> 100 µM
CC1=NN2C(=N)/C(=C/c3ccccc3)C(=O)N=C2S1	> 100 µM	> 100 µM	> 100 µM	> 33.6 µM	> 100 µM	> 100 µM	> 100 µM	> 100 µM	> 100 µM	> 100 µM
CC(C)(CN1CCCCC1)C(/C=C/c1ccccc1)=N\NC(=O)N/N=C(/C=C/c1ccccc1)C(C)(C)CN1CCCCC1	2.78 µM	3.23 µM	1.86 µM	3.53 µM	2.86 µM	5.27 µM	2.67 µM	3.38 µM	3.96 µM	3.05 µM
COc1cc2c(c(OC)c1)C(=O)O[C@H](C)CCCC/C=C/C2	27.5 µM	> 35.1 µM	> 32.9 µM	> 32.6 µM	12.9 µM	> 95.8 µM	> 32.6 µM	> 100 µM	25.6 µM	> 32.8 µM

SMILES	TGI (786-0 renal)	TGI (BT-549 breast)	TGI (HCC-2998 colon)	TGI (MCF7 breast)	TGI (MDA-MB-435)	TGI (NCI-H226 lung)	TGI (NCI-H460 lung)	TGI (OVCAR-8 ovarian)	TGI (RPMI-8226 leukemia)	TGI (SNB-75 CNS)
COc1cc2c(cc1O)CCN(C)[C@H]2Cc1ccc(Oc2c(O)c(OC)cc3c2C[C@H]2c4c(c(OC)c(OC)c(OC)c4-3)CCN2C)cc1	9.4 µM	11.8 µM	8.09 µM	10.7 µM	8.7 µM	13.6 µM	7.65 µM	13.1 µM	5.09 µM	9.61 µM
CCN(CC)C1Oc2cc3c(cc2C(c2cc(OC)c(OC)c(OC)c2)C1C)OCO3 (stereo not given)	> 40.6 µM	> 58.4 µM	19.8 µM	> 50 µM	0.535 µM	4.54 µM	22.5 µM	> 43.2 µM	20.2 µM	> 69.9 µM
COC1(OC)C=CC(=O)C=C1	4.55 µM	14.2 µM	15.4 µM	8.42 µM	12.8 µM	10.4 µM	19.7 µM	7.61 µM	13.5 µM	26.9 µM
N#C/C(C(=O)Nc1ccccc1)=C(/N)N1CCCCC1	> 100 µM	> 100 µM	> 100 µM	> 100 µM	> 100 µM	> 100 µM	> 100 µM	> 100 µM	> 100 µM	> 100 µM
COC(=O)/C=C1\C(=O)C=C2[C@@H]3C[C@H]4C[C@H](CC[C@@]4(C)N21)C3(C)NC(C)=O (stereo not given in full)	14.3 µM	24.8 µM	> 64.9 µM	68.7 µM	28.5 µM	55.1 µM	> 100 µM	51.2 µM	> 100 µM	27.4 µM
NC(=S)N/N=C1\CCCC1C(O)(C(F)(F)Cl)C(F)(F)Cl (stereo not given)	> 10 µM	> 10 µM	> 10 µM	> 10 µM	> 10 µM	> 10 µM	> 10 µM	> 10 µM	> 10 µM	> 10 µM
CNC(=O)N(CCC#N)CCCN(C(=O)N(C)C)c1ccccc1	> 100 µM	> 100 µM	> 100 µM	> 100 µM	> 100 µM	> 100 µM	> 100 µM	> 100 µM	> 100 µM	> 100 µM
COC(=O)c1cc(C)ccc1/C=C1\Cc2c(C)cc(C)cc2C1=O	40.6 µM	> 75.7 µM	> 100 µM	> 100 µM	> 100 µM	> 82.7 µM	> 100 µM	> 100 µM	> 100 µM	35.5 µM
O=C(O)COc1cc(-c2ccccc2)nc2ccccc12	> 100 µM	> 100 µM	> 100 µM	> 100 µM	73.8 µM	> 100 µM	> 100 µM	> 100 µM	> 100 µM	> 100 µM
CC(C)(C)C(=O)N1CCN(C=O)C1=S	> 100 µM	> 100 µM	> 100 µM	64.5 µM	> 100 µM	> 100 µM	> 100 µM	> 100 µM	> 100 µM	90.6 µM
CC1CN=C(c2ccc(-c3nc(-c4ccc(C5=NCC(C)N5)cc4)nc(N(C)C)n3)cc2)N1 (stereo not given)	4.49 µM	13.7 µM	3.76 µM	4.71 µM	3.09 µM	5.35 µM	11.1 µM	10 µM	17.9 µM	4.29 µM
COC(=O)/C=c1/c2ccccc2n2c1c1ccccc1[n+]2C	14.9 µM	14.7 µM	5.75 µM	26.5 µM	18.8 µM	21 µM	12.5 µM	15.7 µM	9.67 µM	8.44 µM
CC(=Nc1cc(Cl)cc(Cl)c1)c1ccncc1	> 100 µM	> 100 µM	> 100 µM	> 100 µM	> 100 µM	> 100 µM	> 100 µM	> 100 µM	> 100 µM	> 100 µM
Clc1nc2c(C#Cc3ccccc3)ncnc2n1C1CCCCO1 (stereo not given)	25.3 µM	49.7 µM	28.7 µM	20.9 µM	94.1 µM	> 100 µM	39.6 µM	> 100 µM	35.8 µM	> 100 µM
Cc1cn(CCOCCOC(=O)NC(CCCNC(N)=O)C(=O)O)c(=O)[nH]c1=O (stereo not given)	> 100 µM	> 100 µM	> 100 µM	> 100 µM	> 100 µM	> 100 µM	> 100 µM	> 100 µM	> 100 µM	> 100 µM
